Laboratory results published in patent US8653026B2, “Treatment of type 2 diabetes with FTY720” (Diapin Therapeutics LLC, priority 2011, dated 2014).

Experiments:
db/db mice [1] = assay: Fasting serum insulin levels (ELISA) in db/db mice; assay type: in vivo, mouse; conditions: FTY720-treated vs untreated, after overnight fasting
Text: FIG. 4. Fasting serum insulin levels of the db/db mice with (+FTY720) or without FTY720 (−FTY720) treatment (*p<0.01).
After overnight fasting, blood samples ([…]) were collected in a heparinized microhematocrit tube for the determination of insulin concentration using a Ultra Sensitive Mouse Insulin ELISA Kit (Crystal Chem Inc., Downers Grove, Ill.) (30).

[2] = test system: isolated pancreatic islets; assay: Glucose-stimulated insulin secretion by isolated normal islets ex vivo; assay type: cell-based, mouse; conditions: islets from 8 weeks old normal C57/BL6 mice, 0.2 μM FTY720, 24 hours
Procedure: Islets were isolated from 8 weeks old normal C57/BL6 mice and treated with or without 0.2 μM FTY720 in the culture medium without FBA for 24 hours. Then the islets were stimulated with glucose and secreted insulin was measured using an Ultra Sensitive Mouse Insulin ELISA Kit (Crystal Chem Inc., Downers Grove, Ill.) and total proteins of islets were measured.

S1P1 = assay: S1P receptor expression in islets from db/db mice: S1P1; assay type: in vivo, mouse; conditions: after FTY720 treatment of db/db mice
Text: (§1) FIG. 15. Expression of 4 FTY720-bound S1P receptors in the islets isolated from the db/db mice.
(§2) FTY720 is phosphorylated in vivo to form FTY720-P that binds S1P1, S1P3, S1P4, and S1P5 but not S1P2 (25). We determined the expression of these receptors in the islets isolated from the untreated and FTY720-treated db/db mice.

db/db mice [3] = assay: Weekly fasting blood glucose in db/db mice given oral FTY720; assay type: in vivo, mouse
Procedure: FIG. 2A. Time course of the fasting glucose levels of db/db mice with or without oral FTY720. Open circle (∘), FTY720-untreated group; solid circle (●), pre-diabetic db/db mice (Fasting glucose<126 mg/dL) at six-week-old treated with 10 mg/kg FTY720; and triangle (▴), diabetic db/db mice (Fasting glucose≅430 mg/dL) at nine-week-old treated with 10 mg/kg FTY720 (n=4). I, Fasting glucose of mice at the age of 6 weeks to 12 weeks at the daily dosage of 10 mg/kg FTY720 (n=20 for the control and FTY720 treated pre-diabetic mice, respectively); II, fasting glucose levels of mice at the age of 12 weeks to 20 weeks at the daily dosage of 10 mg/kg FTY720 (n=6 for the control and FTY720 treated mice, respectively); III, fasting glucose levels of mice at the age of 20 weeks to 29 weeks at the […] dosage of 10 mg/kg FTY720 (n=2 for control and FTY720 treated mice, respectively); IV, fasting glucose levels from the mouse without FTY720 treatment after age of 29 weeks (n=2 for control and FTY720 treated mice, respectively).
Animals and Procedures—Five-week-old female db/db mice (BKS.Cg-m+/−Leprdb) were purchased from Jackson Laboratories (Bar Harbor, Me.). Mice were housed under controlled light (12 h light/12 h dark) and temperature conditions, and had free access to food (normal rodent chow) and water. All procedures were conducted in accordance with the guidelines on Animal Care and were approved by the Institutional Animal Care and Use Committee (IACUC) of Mount Sinai School of Medicine. After 1 week, the fasting glucose levels of the 6-week-old mice were measured. Mice with normal glucose levels (<126 mg/dl) were randomly divided into control and FTY720 treatment groups. Mice in the FTY720-treated group were fed 10 mg/kg of FTY720 daily by feeding tube and their food intake and body weight were measured twice a week. Fasting glucose levels were measured at the end of each week. At 12 weeks of age (when the mice had been treated for 6 weeks), all mice were subjected to metabolic analysis. After metabolic analysis, the pancreases were removed from the mice at 13 and 16 weeks of age for immunohistochemical analysis, quantitation of islet area, or islet isolation.
To rigorously determine the effects of FTY720 in vivo, pre-diabetic (age of six weeks, fasting glucose<126 mg/dL) and diabetic (age of 8-9 weeks, fasting glucose=430 mg/dL) female db/db mice were fed daily with FTY720 (+FTY720) for 29 weeks, and monitored by weekly fasting blood glucose measurements.

db/db mice [4] = assay: Insulin tolerance test; assay type: in vivo, mouse
Procedure: FIG. 5B. Insulin tolerance test (ITT). db/db mice with or without FTY720 treatment were fasted for 6 hours, and injected intraperitoneally with human regular insulin (0.55 U/kg) (Sigma), […] Open circle (∘), FTY720-untreated group; solid circle (●), FTY720-treated group. *p<0.05.
For the glucose tolerance test, the mice were fasted for 16 h and intraperitoneally injected with 10% glucose (1 mg/g of body weight). Glucose levels were then measured after 0, 30, 60, 90, and 120 min by a Glucometer Elite (Bayer Corp., Elkhart, Ind.) (29). For the insulin tolerance test, the mice were fasted for 6 h and injected intraperitoneally with human regular insulin (0.55 units/kg) (Sigma). […]

[5] = Observation of cancer formation during the study; assay type: in vivo, mouse; conditions: during the course of this invention, 10 mg/kg
Text: There are several advantages of the present invention. First, FTY720 is a FDA approved medicine for the treatment of patients with relapsing multiple sclerosis (MS) and its safety profile has been well studied during the clinical trial for treatment of relapsing MS, including more than 4,500 patient years of experience, with some patients in their seventh year of treatment. Second, FTY720 is an orally taken therapy and easy to take by patients, compared with insulin and GLP-1 analog therapies that have to be injected into body either by healthcare professionals or by patients themselves. […] Finally, although FTY720 promotes beta-cell regeneration, the risk of tumorigenesis is low.

[6] = patients with relapsing multiple sclerosis; cited from earlier work
S1P4 = assay: S1P receptor expression in islets from db/db mice: S1P4; assay type: in vivo, mouse; conditions: after FTY720 treatment of db/db mice
Text: as §1, §2

**Q.** For `CCCCCCCCc1ccc(CCC(N)(CO)CO)cc1` [FTY720, 2-amino-2-[2-(4-octylphenyl)ethyl]propane-1,3-diol], which “fasting serum insulin levels” value (db/db mice [1]) is on record?
**A.** significantly elevated

**Q.** What about the glucose-stimulated insulin secretion [2] of the same compound?
**A.** does not affect

**Q.** What about the “S1P1 expression in islets” value (S1P1) of the same compound?
**A.** significantly elevated

**Q.** What about the “distribution of fasting glucose levels” value (db/db mice [3]; all FTY720-treated db/db mice, after 6 weeks treatment) of the same compound?
**A.** normalized

**Q.** And the “fasting glucose levels after FTY720 administration was ceased” value (db/db mice [3]; db/db mice, administration ceased completely after 29-weeks treatment)?
**A.** well controlled

**Q.** And the fasting glucose levels (db/db mice [3]; diabetic db/db mice (glucose ≧350 mg/dL), after six weeks of oral FTY720 10 mg/kg)?
**A.** became normal

**Q.** And the “fasting glucose levels (screen)” value (db/db mice [3]; i.p. injected into or orally administrated to db/db mice)?
**A.** capable of normalizing

**Q.** What about the fasting glucose levels (db/db mice [3]; pre-diabetic db/db mice (six weeks old, fasting glucose <126 mg/dL), 10 mg/kg FTY720 oral daily, untreated about 500 mg/dL by age 12 weeks) of the same compound?
**A.** ~126 mg/dL

**Q.** What about the “glucose levels in treated vs untreated groups after insulin administration” value (db/db mice [4]; after 70 min in insulin tolerance test) of the same compound?
**A.** similar

**Q.** And the insulin sensitivity (db/db mice [4]; db/db mice fasted 6 h, i.p. human regular insulin 0.55 U/kg)?
**A.** not affected

**Q.** What about the cancer formation [5] of the same compound?
**A.** no cancer formation was observed

**Q.** And the “cancer formation in phase III clinical trials” value [6]?
**A.** without reported cancer formation

**Q.** What about the “S1P4 expression in islets” value (S1P4) of the same compound?
**A.** significantly elevated
